The values that follow come from patent EP0437336B1, “Biophosphoryl hydrazines and their use as pesticides” (priority 1990, dated 1991).

Converted amounts (≈) assume the structure as drawn. Where two headings read alike, the source gives them in different places.

One data set deals with Two-Spotted Spider Mite. Put plainly: Biological Method D: Foliar Insecticidal Activity Test, mite test. As to all read-outs here: key: I = Inactive at Rate Tested. In kind it is in vivo, Tetranychus urticae. Particulars: foliar spray, kill after twenty-four hours; for LC50: Tetranychus urticae, 24 h, read-out: TSM LC50. As to the method:
(§1) Biological Method D: Foliar Insecticidal Activity Test
(§2) In evaluating the foliar insecticidal activity of the compounds of this invention against insects and mites, the following test procedures were employed.
(§3) Not all compounds were tested at each of the several concentrations stated above. Test concentrations of a compound were selected as those most likely to differentiate dose response of a particular compound toward a particular test insect.
(§4) Initial evaluations were made on one or more of the following pests:
For the mite test, infested bean (Phaseolus limensis var. Woods Prolific) leaf discs [3.18 cm (1.25") in diameter] containing about 50 mites were placed in a Petri dish lid on a moistened piece of cotton. The leaves were then sprayed to thorough wetness with the test solution using a rotating turntable, held for twenty-four hours and then the percentage killed was determined.
(§5) The mortalities obtained in this manner were plotted on logarithmic probability paper.
(§6) The rotating turntable consists of a fixed, continuously operating spray nozzle under which targets are rotated at a fixed speed and distance. If the target is a Petri dish (such as for the bean beetle, armyworm, mite, or aphid tests), the distance from the nozzle is 38.1 cm (15 inches). If the target is a Mason jar (such as for the boll weevil test), the distance from the nozzle is 17.8 cm (7 inches). The nozzle is located 8 inches from the rotating shaft. The targets on individual platforms revolve around the shaft at 1 revolution per 20 seconds but only a brief portion of this time occurs in the spray path. Targets pass only once under the nozzle and then are removed to drying hoods.
(§7) The nozzle used is a 1/4 JCO Spraying Systems (Wheaton, Illinois) air atomizing nozzle equipped with a No. 2850 fluid cap and a No. 70 air cap. At the 68.95 x 10³ Pa gauge (10 psig) air pressure used and with liquid siphon feed, 1.89 ℓ/hr [0.5 GPH (gallons per hour)] are delivered in a round spray pattern with a 21 degree spray angle. Targets are misted with spray droplets to the point that the droplets coalesce to form a uniform thin film insufficient to drown test organisms.

The test system of another data set is Green Peach Aphid. Put plainly: Biological Method D: Foliar Insecticidal Activity Test, aphid test. Also: key: I = Inactive at Rate Tested. The class given is in vivo, Myzus persicae. The following applies: foliar spray; kill after twenty-four hours. As to the method:
as §1, §2, §3, §4
For the aphid test, infested broccoli (Brassica oleracea italica var. DiCicco) leaves containing about 50 aphids were placed in a Petri dish lid on a moistened piece of cotton. The leaves were then sprayed to thorough wetness with the test solution using a rotating turntable, held for twenty-four hours and then the percentage killed was determined.
as §5, §6, §7

Another data set concerns Southern Armyworm. As to the kind of experiment: Biological Method D: Foliar Insecticidal Activity Test, Southern Armyworm test. As to all read-outs here: key: I = Inactive at Rate Tested. The class given is in vivo, Spodoptera eridania. The following applies: foliar spray; for AW 48 hrs LC50: 48 hours after treatment; for AW 96 hrs LC50: 96 hours after treatment. As to the method:
as §1, §2, §3, §4
(§8) For the Mexican Bean Beetle and Southern armyworm tests, individual lima bean (Phaseolus limeniss var. Woods' Prolific) leaves were placed on moistened pieces of filter paper in Petri dishes. The leaves were then sprayed with the test solution using a rotating turntable and allowed to dry. The dishes were then infested with 10 third instar larvae of either the Mexican Been Beetle or the Southern Armyworm. The dishes were then covered. Percent mortality was determined for each species and spray concentration at 48 and 96 hours after treatment.
as §5, §6, §7

The next data set concerns Boll Weevil. Put plainly: Biological Method D: Foliar Insecticidal Activity Test, boll weevil test. Particulars: spray into jar. In kind it is in vivo, Anthonomous grandis. As to the method: as §1, §2, §3, §4
For the boll weevil test, 10 adult weevils were placed in a 0.24 ℓ (0.5 pint) glass Mason jar containing a small cube of apple. The weevils were confined to the jar by fiberglass screen mesh secured by a screw-type rim cap. The jars were then sprayed with the test solution using a rotating turntable; directing the spray through the mesh into the jar. The percentage killed was determined after forty-eight and ninety six hours.
as §5, §6, §7

For data set [1], the system named is southern corn rootworm, Diabrotica undecimpunctata howardi. Put plainly: Biological Method A: Corn Rootworm Screening Test (treated non-aggressive soil). Particulars: soil concentration giving 90% mortality, 10 days at 27°C.
For the next data set, the system named is Mexican Bean Beetle. Put plainly: Biological Method D: Foliar Insecticidal Activity Test, Mexican Bean Beetle test. In kind it is in vivo, Epilachna varivestis. The following applies: Epilachna varivestis, foliar spray. As to the method: as §1, §2, §3, §4, §8, §5, §6, §7
Where [2] appears, read: 96 hours after treatment, read-out: BB 96 hrs LC50.
[3] abbreviates: 48 hours after treatment, read-out: BB 48 hrs. LC50.

As for `CCCCCCCCOP(=S)(NNP(=S)(OCC)OCC)OCC` (stereo not shown) [Compound 72], in the data set with Two-Spotted Spider Mite, the “TSM LC50” value is reported as “I”. The “GPA LC50” value in the data set on Green Peach Aphid is given as “I”. In addition, in the data set on Southern Armyworm, the “AW 48 hrs LC50” value is reported as “I” and the “AW 96 hrs LC50” value was “I”. In the data set with Boll Weevil, the “BW 48 hrs LC50” value is recorded as “I” and the “BW 96 hrs LC50” value was “I”. In data set [1], the “primary nonagressive Method A crw LC90” value is 1.1 ppm.

Turning to `CCCCCOP(=S)(NNP(=S)(OCC)OCC)OCC` (stereo not shown) [Compound 63], the “TSM LC50” value with Two-Spotted Spider Mite was “I”. The “GPA LC50” value with Green Peach Aphid is recorded as “I”. Also, the LC50 in the data set on Mexican Bean Beetle (setting [2]) worked out at 740 µg/mL (≈ 1960 µM). In addition, in the data set with Southern Armyworm, the “AW 48 hrs LC50” value was “I” and the “AW 96 hrs LC50” value is recorded as “I”. Moreover, in the data set on Boll Weevil, the “BW 48 hrs LC50” value is “I” and the “BW 96 hrs LC50” value was 740 ppm. In data set [1], the “primary nonagressive Method A crw LC90” value stood at 1.1 ppm.

As to `CCOP(=S)(NNP(=S)(OCC)OCC(F)(F)C(F)(F)F)OCC` (stereo not shown) [Compound 78], in the data set with Two-Spotted Spider Mite, the 50% lethal concentration (LC50) stood at 150 µg/mL (≈ 341 µM). The “GPA LC50” value with Green Peach Aphid is on record as “I”. The median lethal concentration (LC50) with Mexican Bean Beetle (setting [3]) worked out at 360 µg/mL (≈ 818 µM). Moreover, in the data set with Mexican Bean Beetle (setting [2]), the LC50 was found to be 150 µg/mL (≈ 341 µM). For the same compound, in the data set with Southern Armyworm, the “AW 48 hrs LC50” value was “I” and the “AW 96 hrs LC50” value is “I”. In addition, in the data set on Boll Weevil, the “BW 48 hrs LC50” value was “I” and the “BW 96 hrs LC50” value was “I”. For the same compound, in data set [1], the “primary nonagressive Method A crw LC90” value was found to be 1.1 ppm.

In the case of `CCOP(=S)(NNP(=S)(OCC(C)(C)C)OC(C)C)OCC` (stereo not shown) [Compound 68], the 50% lethal concentration (LC50) with Two-Spotted Spider Mite was 520 µg/mL (≈ 1320 µM). Moreover, in the data set with Green Peach Aphid, the “GPA LC50” value is reported as “I”. In addition, the LC50 with Mexican Bean Beetle (setting [3]) was 500 µg/mL (≈ 1270 µM). For the same compound, the LC50 in the data set on Mexican Bean Beetle (setting [2]) turned out to be 150 µg/mL (≈ 382 µM). Moreover, in the data set with Southern Armyworm, the “AW 48 hrs LC50” value was “I” and the “AW 96 hrs LC50” value is given as “I”. Also, in the data set with Boll Weevil, the “BW 48 hrs LC50” value was “I” and the “BW 96 hrs LC50” value is reported as “I”. Besides, the “primary nonagressive Method A crw LC90” value in data set [1] was found to be 1.1 ppm.

With `CCCCCCOP(=S)(NNP(=S)(OCC)OCC)OCC` (stereo not shown) [Compound 77], in the data set with Two-Spotted Spider Mite, the “TSM LC50” value was “I”. For the same compound, in the data set on Green Peach Aphid, the “GPA LC50” value is “I”. For the same compound, the median lethal concentration (LC50) with Mexican Bean Beetle (setting [3]) came out at 150 µg/mL (≈ 382 µM). Besides, the LC50 in the data set with Mexican Bean Beetle (setting [2]) was determined as 150 µg/mL (≈ 382 µM). In the data set on Southern Armyworm, the “AW 48 hrs LC50” value is reported as “I” and the “AW 96 hrs LC50” value is given as “I”. In addition, in the data set with Boll Weevil, the “BW 48 hrs LC50” value is reported as “I” and the “BW 96 hrs LC50” value was “I”. Further, in data set [1], the “primary nonagressive Method A crw LC90” value stood at 1.1 ppm.

For the compound `CCCN(C)P(=S)(NNP(=S)(OCC)OCC)OCC` (stereo not shown) [Compound 76], the median lethal concentration (LC50) with Two-Spotted Spider Mite was found to be 150 µg/mL (≈ 413 µM). The “GPA LC50” value with Green Peach Aphid is “I”. For the same compound, the LC50 in the data set with Mexican Bean Beetle (setting [3]) stood at 150 µg/mL (≈ 413 µM). Moreover, the LC50 in the data set with Mexican Bean Beetle (setting [2]) amounted to 62 µg/mL (≈ 171 µM). In addition, in the data set with Southern Armyworm, the “AW 48 hrs LC50” value is “I” and the “AW 96 hrs LC50” value was “I”. In the data set on Boll Weevil, the “BW 48 hrs LC50” value is “I” and the “BW 96 hrs LC50” value is listed as “I”. Besides, the “primary nonagressive Method A crw LC90” value in data set [1] came to 1.1 ppm.

On to `CCCCCCOP(=S)(NNP(=S)(OCCC)OCCC)OCC` (stereo not shown) [Compound 80], for which, in the data set with Two-Spotted Spider Mite, the “TSM LC50” value is listed as “I”. For the same compound, the “GPA LC50” value in the data set with Green Peach Aphid is “I”. Also, in the data set with Southern Armyworm, the “AW 48 hrs LC50” value is “I” and the “AW 96 hrs LC50” value is reported as “I”. Besides, in the data set on Boll Weevil, the “BW 48 hrs LC50” value is “I” and the “BW 96 hrs LC50” value was “I”. In data set [1], the “primary nonagressive Method A crw LC90” value came out at 1.1 ppm.

With `CCCOP(=S)(NNP(=S)(OCC)N1CCCCC1)OCCC` (stereo not shown) [Compound 64], in the data set with Two-Spotted Spider Mite, the “TSM LC50” value is recorded as “I”. In addition, the “GPA LC50” value in the data set on Green Peach Aphid is listed as “I”. Besides, in the data set on Mexican Bean Beetle (setting [3]), the median lethal concentration (LC50) stood at 740 µg/mL (≈ 1830 µM). Further, the LC50 in the data set with Mexican Bean Beetle (setting [2]) was determined as 740 µg/mL (≈ 1830 µM). In the data set on Southern Armyworm, the “AW 48 hrs LC50” value is “I” and the “AW 96 hrs LC50” value is “I”. Further, in the data set on Boll Weevil, the “BW 48 hrs LC50” value is “I” and the “BW 96 hrs LC50” value is “I”. Besides, the “primary nonagressive Method A crw LC90” value in data set [1] is 8.6 ppm.
